The values that follow come from US4416899A, “Antibiotic BMG162-aF2, a process for production thereof, and antitumor drug containing said new antibiotic as active ingredient” (priority 1980, dated 1983).

Converted amounts (≈) assume the structure as drawn. “Also recorded” adds a separate entry of the source. Counter-ions that a name gives are not always drawn.

Series [1] is described as follows: Stability / hydroscopicity. The series is classed as physicochemical. Conditions: hydrochloride salt.
The nature of series [2]: Acute toxicity, intravenous. The settings on record: mouse, in vivo.
The nature of the next series: Solubility. The series is classed as physicochemical.
The subject of series [3] is Aeromonas punctata IAM1646. As to the kind of experiment: Antibacterial activity, agar dilution method (Table 2-2). The settings on record: Aeromonas caviae, IAM1646, read-out: Minimum inhibitory concentration. Background: In agar dilution the substance is mixed into plates at graded concentrations.
In a further series the test system is Salmonella typhi T-63. As to the kind of experiment: Antibacterial activity, agar dilution method (Table 2-1). It is filed as cell-based. Conditions: Salmonella enterica, read-out: Minimum inhibitory concentration.
Series [4] deals with Saccharomyces cerrevisiae. As to the kind of experiment: Antibacterial activity, agar dilution method (Table 2-3). Conditions: nutrient agar + 1% glucose, 27° C., hydrochloride, read-out: Minimum inhibitory concentration. It is filed as cell-based.
Series [5] has as its system Bacillus subtilis NRRL B-558. As to the kind of experiment: Antibacterial activity, agar dilution method (Table 2-1). It is filed as cell-based. Conditions: NRRLB558, nutrient agar, 37° C., hydrochloride, read-out: Minimum inhibitory concentration.
In series [6] the test system is Gram-positive and Gram-negative bacteria. As to the kind of experiment: Antibacterial activity, agar dilution method (summary in words). Conditions: as the hydrochloride salt. It is filed as cell-based.
In another series the test system is Pseudomonas lachrymans. As to the kind of experiment: Antibacterial activity, agar dilution method (Table 2-2). Conditions: read-out: Minimum inhibitory concentration.
Another series relates to Aeromonas sp. (KT-444). The description is as above. The settings on record: read-out: Minimum inhibitory concentration.
The test system of a further series is mouse Sarcoma 180. As to the kind of experiment: Effect on Sarcoma 180. The settings on record: for rate of elongation of survival period: once a day for 9 days, ICR mice, control 13.8 days.
The test system of series [7] is Aeromonas salmonecida ATCC 14174. As to the kind of experiment: Antibacterial activity, agar dilution method (Table 2-2). The settings on record: ATCC14174, read-out: Minimum inhibitory concentration.
For another series, the system named is Sarcina lutea PCI1001. As to the kind of experiment: Antibacterial activity, agar dilution method (Table 2-1). The series is classed as cell-based. Conditions: Micrococcus luteus, nutrient agar, 37° C., hydrochloride, read-out: Minimum inhibitory concentration.
Another series deals with Candida krusei NI7492. As to the kind of experiment: Antibacterial activity, agar dilution method (Table 2-3). The series is classed as cell-based. Conditions: Pichia kudriavzevii, nutrient agar + 1% glucose, 27° C., hydrochloride, read-out: Minimum inhibitory concentration.
Series [8] has as its system Trichophyton mentagrophytes. The description is as above. It is filed as cell-based. Conditions: nutrient agar + 1% glucose, 27° C., hydrochloride, read-out: Minimum inhibitory concentration.
For series [9], the system named is Shigella flexneri 4bJS11811. As to the kind of experiment: Antibacterial activity, agar dilution method (Table 2-1). It is filed as cell-based. The settings on record: nutrient agar, 37° C., hydrochloride, read-out: Minimum inhibitory concentration. An excerpt: (§1) | Medium used: nutrient agar
The next series deals with Shigella sonnei JS11746. The description is as above. It is filed as cell-based. The settings on record: nutrient agar, 37° C., hydrochloride, read-out: Minimum inhibitory concentration.
Text: as §1

In a further series the test system is Candida Yu-1200. As to the kind of experiment: Antibacterial activity, agar dilution method (Table 2-3). Conditions: YU1200, nutrient agar + 1% glucose, 27° C., hydrochloride, read-out: Minimum inhibitory concentration. It is filed as cell-based.
In series [10] the test system is mouse Ehrlich ascites tumor. As to the kind of experiment: Effect on mouse Ehrlich ascites tumor. The settings on record: for rate of elongation of survival period: once a day for 9 days, ICR mice, control 13.8 days.
The subject of a further series is mouse leukemia EL-4. As to the kind of experiment: Effect on mouse leukemia EL-4. It is filed as in vivo. The settings on record: for rate of elongation of survival period: once a day for 9 days, C57 BL/6 mice, control 11.0 days.

`N=C(N)NCCCCC(O)CC(=O)NC(O)C(=O)NCCCCNCCCN` (stereo not shown) [BMG162-aF2 hydrochloride]: the hydroscopicity result in [1] was “so hydroscopic that it forms a hydrate”. Moreover, the LD50 (usually the dose expected to kill half of the subjects tested) in [2] is greater than 80 mg/kg. Moreover, the solubility entry in the series “Solubility” (benzene) is “only slightly soluble or insoluble”; in “Solubility” (chloroform), “only slightly soluble or insoluble”; in “Solubility” (ethanol) it was “only slightly soluble or insoluble”; in the series “Solubility” (ethyl acetate), “only slightly soluble or insoluble”; in “Solubility” (methanol), “easily soluble”; in the series “Solubility” (water), “easily soluble”.

For the compound `N=C(N)NCCCCC(O)CC(=O)NC(O)C(=O)NCCCCNCCCN` (stereo not shown) [BMG162-aF2], the MIC was greater than 100 µg/mL in series [3]; greater than 100 µg/mL with Salmonella typhi T-63; greater than 100 µg/mL in series [4]; 100 µg/mL (≈ 248 µM) in [5]; 50 µg/mL (≈ 124 µM) in the series with Pseudomonas lachrymans; greater than 100 µg/mL with Aeromonas sp. (KT-444). In addition, the MIC in series [7] was greater than 100 µg/mL; with Sarcina lutea PCI1001 it was 100 µg/mL (≈ 248 µM); in the series with Candida krusei NI7492 it was greater than 100 µg/mL; in [8] it was greater than 100 µg/mL; in [9], greater than 100 µg/mL; with Shigella sonnei JS11746, greater than 100 µg/mL. Besides, the MIC with Candida Yu-1200 was greater than 100 µg/mL. The “inhibitory activity against Gram-positive and Gram-negative bacteria” value in series [6] was “only weak inhibitory activity; also recorded: weakly inhibits Gram positive and negative bacteria”. The “rate of elongation of survival period” value in the series on mouse Sarcoma 180 (1.56 mg/kg/day ip) was 220; with mouse Sarcoma 180 (3.13 mg/kg/day ip), 243; with mouse Sarcoma 180 (6.25 mg/kg/day ip), 181; in the series with mouse Sarcoma 180 (12.5 mg/kg/day ip), greater than 279; with mouse Sarcoma 180 (50 mg/kg/day ip) it was 53; in [10] (1.56 mg/kg/day ip), 133. For the same compound, the “rate of elongation of survival period” value in series [10] (3.13 mg/kg/day ip) was 188; in [10] (6.25 mg/kg/day ip), 236; in series [10] (12.5 mg/kg/day ip), 170; in series [10] (25 mg/kg/day ip), 72; in series [10] (50 mg/kg/day ip) it was 54; with mouse leukemia EL-4 (0.313 mg/kg/day ip), 131. The “rate of elongation of survival period” value in the series on mouse leukemia EL-4 (0.625 mg/kg/day ip) was determined as 130; in the series on mouse leukemia EL-4 (1.25 mg/kg/day ip), 159; in the series with mouse leukemia EL-4 (2.5 mg/kg/day ip), 164; with mouse leukemia EL-4 (5 mg/kg/day ip), 193. Also, the Toxic sign entry in the series on mouse Sarcoma 180 (50, 12.5 and 6.25 mg/kg/day ip (footnote *)) is given as “Toxic sign appeared”; in [10] (50, 25 and 12.5 mg/kg/day ip (footnote *)), “Toxic sign appeared”. For the same compound, the “effect on Sarcoma 180” value in the series on mouse Sarcoma 180 (hydrochloride, ip) was “remarkable effects of cure and elongation of survival period; also recorded: showed an effect against a transplanted tumor”. Moreover, the “effect on Ehrlich ascites tumor” value in [10] (hydrochloride, ip) was “remarkable effects of cure and elongation of survival period; also recorded: showed an effect against a transplanted tumor”. Besides, the “effect on mouse leukemia EL-4” value in the series on mouse leukemia EL-4 (hydrochloride, ip) was “remarkable effects of cure and elongation of survival period”.
